Data from US20260193221A1, “SOLID FORMS COMPRISING (5R,6S)-10,11-DIFLUORO-12-((2-FLUORO-4-IODOPHENYL)AMINO)-5,6-DIHYDROXY-4,5,6,7-TETRAHYDRO-1H-SPIRO[BENZO[B][1,5,4]OXATHIAZECINE-3,1'-CYCLOPROPANE] 2,2-DIOXIDE, AND COMPOSITIONS COMPRISING AND METHODS OF USING THE SAME” (PASITHEA THERAPEUTICS CORP., priority 2024, published 2026).
≈ marks a conversion by molar mass, not a printed value. Entries after “also recorded” stand apart in the source; their conditions may differ. Read-outs that look alike come from different tables or passages of the source.

What was measured:
[1] = Solubility, Experiment 1 (target concentration 2 mg/mL); assay type: physicochemical; conditions: for Solubility / XRPD of residual solid: 37° C.
Experimental: (§1) Experiment 1: 5 mg of Form A and 5 mg of amorphous form were weighed into an 8 mL glass vial, respectively. 2.5 mL of solubility medium was added. Obtained suspensions/solutions were stirred at 37° C. at 400 rpm and sampled at 2 hours and at 24 hours. Obtained suspensions/solutions were filtered through a 0.45 μm PVDF membrane filter by centrifugation at 14,000 rpm and at 37° C. Filtrate were analyzed by HPLC and pH meter for solubility and pH value, respectively. Residual solids (wet cakes) from the 24 hours samples were also characterized by XRPD to determine physical form.

[2] = Solubility, Experiment 2 (target concentration 5 mg/mL); assay type: physicochemical; conditions: for Solubility: 37° C.
Experimental: as §1, with “2:” for “1:”, “1” for “2.5”, “respectively.” for “respectively. Residual solids (wet cakes) from the 24 hours samples were also characterized by XRPD to determine physical form.”

[3] = Phase 1 clinical trial, pharmacokinetics; assay type: in vivo, human; conditions: for AUC0-24 / Cmin / half-life / Cmax: patients; for AUC0-24 / Cmin / Cmax: geometric mean (geometric CV %); for half-life / Cmax: human, plasma, po
From the text: (§2) A Phase 1 Open-Label Study to Assess the Safety, Tolerability, Pharmacokinetics, and Pharmacodynamics of Compound 1 in Patients with MAPK Pathway-Driven Advanced Solid Tumors with a Documented RAS, NF1, or RAF Mutation or Patients Who have Failed BRAF/MEK Inhibition
(§3) The Phase 1 clinical trial is a multi-center, open-label, dose escalation 3+3 study design to evaluate the safety, tolerability, pharmacokinetic (PK), pharmacodynamic (PD), and preliminary efficacy of Compound 1 in patients with MAPK pathway driven advanced solid tumors with a documented RAS, NF or RAF mutation or patients who have failed BRAF/MEK inhibition.
(§4) Patients with histologically or cytologically diagnosed mitogen-activated protein kinase (MAPK) pathway driven advanced solid tumors with all of the following characteristics qualified for enrollment: • i. tumor cannot be surgically resected • ii. patient has failed or is ineligible for standard of care therapy • iii. patient has no available treatment options with known clinical benefit • iv. documented evidence of rat sarcoma virus (RAS), neurofibromatosis type I (NF1), and/or rapidly accelerated fibrosarcoma (RAF) mutations. Patients with RAF mutations must have previously failed v-Raf murine sarcoma viral oncogene homolog B (BRAF)/MEK inhibition.
(§5) Patients in the study were administered Compound 1 by mouth as a single dose, followed by one week observation, then once a day during the study, in 28-day cycles. Participants will continue on daily Compound 1 for up to 2 years, or until: • i. they decide to withdraw from the study, or • ii. they experience unacceptable side effects, or • iii. their disease progresses, or another illness interferes with taking the study drug, or • iv. the sponsors stops the study.
(§6) In this study, Compound 1 was presented in 1 mg, 4 mg, and 10 mg strength capsules, intended for oral administration once daily. Sequential dose escalation is: 2 mg, 4 mg, 8 mg, 15 mg, 22 mg, 30 mg, 37 mg, and 45 mg.

[4] = Phase 1 clinical trial, safety and tolerability; assay type: in vivo, human
From the text: as §2, §3, §4, §5, §6

Bulk stability = assay type: physicochemical; conditions: 25° C./92.5% RH open, 40° C./75% RH open, 60° C. closed container; 1 week
Experimental: Form A was placed at 25° C./92.5% RH in an open container, at 40° C./75% RH in an open container, and at 60° C. in a closed container for 1 week. Samples after the stress were characterized by XRPD and HPLC and inspected for color change.

Hygroscopicity by DVS = assay type: physicochemical
Experimental: Water sorption and desorption behavior Form A was investigated by DVS at 25° C. with a cycle of 40-0-95-0-40% RH. XRPD was measured after the DVS test to determine form change. […] The DVS test measured 0.4% water uptake from 40% to 80% RH, see FIG. 4.

[5] = Mechanic properties (compression, dry grinding, wet granulation simulation); assay type: physicochemical
Experimental: Compression simulation experiments: about 20 mg of Form A was compressed for 5 minutes under 2 MPa, 5 MPa and 10 MPa with a hydraulic press. Potential form change and degree of crystallinity were evaluated by XRPD.
Dry grinding simulation experiments: about 20 mg of Form A was ground manually with a mortar and a pestle for 5 min. Potential form change and degree of crystallinity were evaluated by XRPD.
Wet granulation simulation experiments: water or ethanol was added drop-wisely to about 20 mg of Form A until the sample was wetted sufficiently. Wet sample was ground gently with in a mortar and a pestle for 5 min. Post granulation sample was dried under ambient condition for 10 min. Potential form change and degree of crystallinity were evaluated by XRPD.

[6] = Acetate buffer (50 mM), pH 4.5, 24 h
[7] = Acetate buffer (50 mM), pH 4.5, 24 h, target concentration 2 mg/mL
[8] = FaSSGF, pH 1.6, 24 h, target concentration 2 mg/mL
[9] = FaSSIF-v1, pH 6.5, 2 h, target concentration 2 mg/mL
[10] = FaSSIF-v1, pH 6.5, 24 h, target concentration 2 mg/mL
[11] = HCl solution, pH 1.2, 24 h, target concentration 2 mg/mL
[12] = Phosphate buffer (50 mM), pH 6.8, 24 h
[13] = Phosphate buffer (50 mM), pH 6.8, 24 h, target concentration 2 mg/mL
[14] = 2 mg, Day 22 (steady state), oral once daily
[15] = 4 mg, Day 22 (steady state), oral once daily

O=S1(=O)Nc2c(cc(F)c(F)c2Nc2ccc(I)cc2F)OC[C@H](O)[C@H](O)CC12CC2 [Amorphous form, (5R,6S)-10,11-difluoro-12-((2-fluoro-4-iodophenyl)amino)-5,6-dihydroxy-4,5,6,7-tetrahydro-1H-spiro[benzo[b][1,5,4]oxathiazecine-3,1′-cyclopropane]2,2-dioxide]
Solubility ([1]; Acetate buffer (50 mM), pH 4.5, 2 h, target concentration 2 mg/mL): 17 µg/mL (≈ 29.8 µM) | XRPD of residual solid [1, 6]: Amorphous | Solubility [1, 7]: 17 µg/mL (≈ 29.8 µM) | Solubility ([1]; FaSSGF, pH 1.6, 2 h, target concentration 2 mg/mL): 16 µg/mL (≈ 28.1 µM) | XRPD of residual solid ([1]; FaSSGF, pH 1.6, 24 h): Amorphous | Solubility [1, 8]: 14 µg/mL (≈ 24.5 µM) | Solubility [1, 9]: 1100 µg/mL (≈ 1930 µM) | XRPD of residual solid ([1]; FaSSIF-v1, pH 6.5, 24 h): Amorphous | Solubility [1, 10]: 1200 µg/mL (≈ 2100 µM) | Solubility ([1]; FeSSIF-v1, pH 5.0, 2 h, target concentration 2 mg/mL): >2000 µg/mL | Solubility ([1]; FeSSIF-v1, pH 5.0, 24 h, target concentration 2 mg/mL): >2000 µg/mL | Solubility ([1]; HCl solution, pH 1.2, 2 h, target concentration 2 mg/mL): 14 µg/mL (≈ 24.5 µM) | XRPD of residual solid ([1]; HCl solution, pH 1.2, 24 h): Form A | Solubility [1, 11]: 13 µg/mL (≈ 22.8 µM) | Solubility ([1]; Phosphate buffer (50 mM), pH 6.8, 2 h, target concentration 2 mg/mL): 16 µg/mL (≈ 28.1 µM) | XRPD of residual solid [1, 12]: Amorphous | Solubility [1, 13]: 16 µg/mL (≈ 28.1 µM) | Solubility ([1]; Water, 2 h, target concentration 2 mg/mL): 38 µg/mL (≈ 66.6 µM) | XRPD of residual solid ([1]; Water, 24 h): Amorphous | Solubility ([1]; Water, 24 h, target concentration 2 mg/mL): 34 µg/mL (≈ 59.6 µM) | Solubility ([2]; FeSSIF-v1, pH 5.0, 2 h): >5000 µg/mL | Solubility ([2]; FeSSIF-v1, pH 5.0, 24 h): >5000 µg/mL

O=S1(=O)Nc2c(cc(F)c(F)c2Nc2ccc(I)cc2F)OC[C@H](O)[C@H](O)CC12CC2 [Compound 1, (5R,6S)-10,11-difluoro-12-((2-fluoro-4-iodophenyl)amino)-5,6-dihydroxy-4,5,6,7-tetrahydro-1H-spiro[benzo[b][1,5,4]oxathiazecine-3,1′-cyclopropane]2,2-dioxide]
Dose dependence of plasma exposure ([3]; 2 mg and 4 mg cohorts): linear PK was observed | AUC0-24 ([3]; 2 mg, Day 1, oral): 86.3 (89.2) ng*h/mIL | AUC0-24 [3, 14]: 354 (95.2) ng*h/mIL | Cmin [3, 14]: 10.2 (119.4) ng/mL | AUC0-24 ([3]; 4 mg, Day 1, oral): 100 (97.1) ng*h/mIL | AUC0-24 [3, 15]: 1,390 (12.8) ng*h/mIL | Cmin [3, 15]: 51.5 (20.8) ng/mL | time at which drug levels peaked ([3]; at steady-state, 2 mg and 4 mg dose groups): about 5 hours | half-life ([3]; 2 mg and 4 mg cohorts, oral, read-out: half-life (converted)): ~70 h | half-life ([3]; 2 mg and 4 mg cohorts, oral, read-out: mean elimination half-life (converted)): 67.9 h | Cmax ([3]; 2 mg, Day 1, oral): 4.91 ng/mL | Cmax [3, 14]: 16.2 ng/mL | Cmax ([3]; 4 mg, Day 1, oral): 6.36 ng/mL | Cmax [3, 15]: 61.3 ng/mL | Cmax/Cmin ratio ([3]; plasma concentration at steady state): 1.2 | Rash or skin, gastrointestinal (GI), ocular toxicity ([4]; 2 and 4 mg dose levels): without showing adverse side effects such as rash or GI toxicity; also recorded: no rash or skin toxicity, gastrointestinal (GI) toxicity, or ocular toxicity have been observed | Drug-related serious adverse events (SAE) ([4]; any dose arm): no drug-related serious adverse events | Drug-related dose interruptions, reductions or discontinuations ([4]; first 2 dosing cohorts (n=6)): no drug-related dose interruptions, reductions or discontinuations | Tolerability ([4]; first 2 dosing cohorts (n=6), 2 mg and 4 mg): well-tolerated

O=S1(=O)Nc2c(cc(F)c(F)c2Nc2ccc(I)cc2F)OC[C@H](O)[C@H](O)CC12CC2 [Form A, (5R,6S)-10,11-difluoro-12-((2-fluoro-4-iodophenyl)amino)-5,6-dihydroxy-4,5,6,7-tetrahydro-1H-spiro[benzo[b][1,5,4]oxathiazecine-3,1′-cyclopropane]2,2-dioxide]
XRPD of residual solid [1, 6]: Form A | Solubility [1, 7]: 5.1 µg/mL (≈ 8.94 µM) | solubility at 2 h ([1]; FaSSGF, pH 1.6, 37 °C, pH 1.6, fassgf or other biorelevant, thermodynamic from solid, pH 1.6, 2 h, target concentration 2 mg/mL): 12 µg/mL (≈ 21 µM) | XRPD of residual solid ([1]; FaSSGF, pH 1.6, 24 h): Form A | Solubility [1, 8]: 6.3 µg/mL (≈ 11 µM) | Solubility [1, 9]: 270 µg/mL (≈ 473 µM) | XRPD of residual solid ([1]; FaSSIF-v1, pH 6.5, 24 h): Form A | Solubility [1, 10]: 330 µg/mL (≈ 579 µM) | solubility at 2 h ([1]; FeSSIF-v1, pH 5.0, 37 °C, pH 5, fessif, thermodynamic from solid, FeSSIF-v1, pH 5.0, 2 h, target concentration 2 mg/mL): 1800 µg/mL (≈ 3160 µM) | solubility at 24 h ([1]; FeSSIF-v1, pH 5.0, 37 °C, pH 5, fessif, thermodynamic from solid, FeSSIF-v1, pH 5.0, 24 h, target concentration 2 mg/mL): ≥ 2000 µg/mL | solubility at 2 h ([1]; HCl solution, pH 1.2, 37 °C, pH 1.2, simulated gastric fluid, thermodynamic from solid, pH 1.2, 2 h, target concentration 2 mg/mL): 12 µg/mL (≈ 21 µM) | XRPD of residual solid ([1]; HCl solution, pH 1.2, 24 h): Form A | Solubility [1, 11]: 3.7 µg/mL (≈ 6.49 µM) | XRPD of residual solid [1, 12]: Form A | Solubility [1, 13]: 5.1 µg/mL (≈ 8.94 µM) | XRPD of residual solid ([1]; Water, 24 h): Form A | solubility at 2 h ([1]; acetate buffer (50 mM), pH 4.5, 37 °C, pH 4.5, aqueous buffer, thermodynamic from solid, pH 4.5, 2 h, target concentration 2 mg/mL): 12 µg/mL (≈ 21 µM) | solubility at 2 h ([1]; phosphate buffer (50 mM), pH 6.8, 37 °C, pH 6.8, aqueous buffer, thermodynamic from solid, pH 6.8, 2 h, target concentration 2 mg/mL): 13 µg/mL (≈ 22.8 µM) | solubility at 2 h ([1]; water, 37 °C, thermodynamic from solid, 2 h, target concentration 2 mg/mL): 19 µg/mL (≈ 33.3 µM) | solubility at 24 h ([2]; FeSSIF-v1, pH 5.0, 37 °C, pH 5, fessif, thermodynamic from solid, 24 h): 3000 µg/mL (≈ 5260 µM) | Solubility ([2]; FeSSIF-v1, pH 5.0, 2 h): 2400 µg/mL (≈ 4210 µM) | Color change after stress (Bulk stability): no change of color was observed | Physical form after stress (XRPD) (Bulk stability): Form A was confirmed | Water uptake (DVS) (Hygroscopicity by DVS; 25° C., from 40% to 80% RH): 0.4% | Hygroscopicity (Hygroscopicity by DVS; DVS at 25° C., cycle 40-0-95-0-40% RH): slightly hygroscopic | XRPD after the DVS test (form change) (Hygroscopicity by DVS; after DVS cycle 40-0-95-0-40% RH): no form change | Crystallinity after compression (XRPD) ([5]; compressed 5 minutes under 2 MPa, 5 MPa and 10 MPa): No obvious decrease in crystallinity | Crystallinity after dry grinding (XRPD) ([5]; ground manually with mortar and pestle for 5 min): Only a slight decrease in crystallinity | Crystallinity after wet granulation (XRPD) ([5]; water or ethanol, ground 5 min, dried 10 min): Only a slight decrease in crystallinity
